Experimental findings from US12435058B2, “KIF18A inhibitors” (AMGEN INC., priority 2019, dated 2025) are described below.

The target in this assay is T1, Recombinant human KIF18A (1-467 His-tagged) protein (Homo sapiens, UniProt Q8NI77).
T1 construct: Recombinant human KIF18A (1-467 His-tagged) protein; His; made in house
T1 sequence (Q8NI77 1-467): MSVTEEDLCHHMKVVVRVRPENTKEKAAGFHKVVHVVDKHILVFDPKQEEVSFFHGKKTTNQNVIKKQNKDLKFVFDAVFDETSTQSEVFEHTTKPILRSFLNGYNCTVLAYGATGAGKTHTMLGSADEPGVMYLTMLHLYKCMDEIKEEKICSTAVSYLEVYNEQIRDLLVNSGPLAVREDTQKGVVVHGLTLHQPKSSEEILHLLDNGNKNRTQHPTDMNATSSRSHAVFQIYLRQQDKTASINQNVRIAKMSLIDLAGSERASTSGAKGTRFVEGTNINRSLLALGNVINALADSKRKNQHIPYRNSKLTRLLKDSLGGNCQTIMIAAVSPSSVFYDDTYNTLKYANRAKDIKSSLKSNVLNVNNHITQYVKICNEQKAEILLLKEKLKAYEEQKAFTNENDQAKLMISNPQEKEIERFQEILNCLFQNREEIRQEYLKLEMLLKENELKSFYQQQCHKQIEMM
T1 sequence (P02550 whole entry partner): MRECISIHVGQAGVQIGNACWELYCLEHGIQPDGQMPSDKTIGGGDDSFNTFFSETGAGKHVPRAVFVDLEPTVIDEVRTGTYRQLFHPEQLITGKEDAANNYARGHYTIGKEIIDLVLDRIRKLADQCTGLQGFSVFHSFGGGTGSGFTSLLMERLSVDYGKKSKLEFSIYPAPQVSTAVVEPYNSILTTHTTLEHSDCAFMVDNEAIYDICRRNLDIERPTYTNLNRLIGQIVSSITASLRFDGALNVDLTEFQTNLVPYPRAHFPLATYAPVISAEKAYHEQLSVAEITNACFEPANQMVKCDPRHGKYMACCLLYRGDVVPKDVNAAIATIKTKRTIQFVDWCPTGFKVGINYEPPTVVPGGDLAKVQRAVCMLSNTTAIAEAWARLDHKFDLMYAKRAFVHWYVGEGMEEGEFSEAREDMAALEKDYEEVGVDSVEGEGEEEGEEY
T1 sequence (P02554 whole entry partner): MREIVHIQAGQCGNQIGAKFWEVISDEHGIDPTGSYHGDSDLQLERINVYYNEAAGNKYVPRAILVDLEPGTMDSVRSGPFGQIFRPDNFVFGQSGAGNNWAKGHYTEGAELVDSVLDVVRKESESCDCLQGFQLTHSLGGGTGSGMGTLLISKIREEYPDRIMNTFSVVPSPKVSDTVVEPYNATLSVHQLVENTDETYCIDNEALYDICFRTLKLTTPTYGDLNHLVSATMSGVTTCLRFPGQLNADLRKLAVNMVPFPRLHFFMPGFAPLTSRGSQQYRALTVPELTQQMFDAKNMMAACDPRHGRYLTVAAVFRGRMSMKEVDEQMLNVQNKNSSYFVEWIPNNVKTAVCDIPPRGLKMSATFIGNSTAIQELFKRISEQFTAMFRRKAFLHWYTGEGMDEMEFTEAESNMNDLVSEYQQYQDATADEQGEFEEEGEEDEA
Kind of assay: KIF18A Enzyme Assay (microtubule-stimulated ATPase activity, ADP-Glo). The class given is biochemical. To be noted: KIF18A protein 30 nM, ATP 75 μM (at Km), 30 μg/mL pig microtubules, ADP-Glo luminescence. The source says: For compounds in Table A, the following assay conditions were employed:
KIF18A Enzyme Assay: Microtubule-stimulated ATPase activity assay is used to measure KIF18A enzyme activity after treatment with compound. Compounds were 2-fold serially diluted in DMSO (Sigma Inc) over 22-point concentration range. Recombinant human KIF18A (1-467 His-tagged) protein was expressed using a baculovirus system and purified by affinity chromatography by Amgen Inc. Concentrations of KIF18A protein, microtubules (MT), and ATP in the reaction were optimized for standardized homogenous enzyme assay using ADP-Glom Kinase/ATPase Assay Kit (Promega Inc). The assay measures ADP formed from the ATPase reaction. […] Read luminescence using EnVision microplate reader with ultra-luminescence module (Perkin Elmer Inc). Concentration-response curve-fitting and IC50 determination was performed using Genedata Screener Software (Standard 15.0.1, Genedata Inc) with a four-parameter logistic regression fit model.
For orientation: In ADP-Glo the light output rises with the ADP produced.
The term IC50 denotes the concentration needed to halve the response being measured. For the compound `CC(C)(CO)Nc1cnc(C(=O)Nc2cccc(S(=O)(=O)[C@H]3CCC(F)(F)C3)c2)c(N2CCC3(CC2)CC3)n1` (single isomer, unassigned) [Example 102-1], the IC50 was 67 nM. The figure for `CC(C)(CO)Nc1cnc(C(=O)Nc2cccc(S(=O)(=O)[C@@H]3CCC(F)(F)C3)c2)c(N2CCC3(CC2)CC3)n1` (single isomer, unassigned) [Example 102-2] is 111 nM; for `CC(C)(C)NS(=O)(=O)c1cccc(NC(=O)c2ncc([C@@](C)(O)C(F)(F)F)nc2N2CCC3(CC2)CC3)c1` (single isomer, unassigned) [Example 105-1] it is 174 nM. The figure for `CC(C)(C)NS(=O)(=O)c1cccc(NC(=O)c2ncc([C@](C)(O)C(F)(F)F)nc2N2CCC3(CC2)CC3)c1` (single isomer, unassigned) [Example 105-2] is 356 nM; for `CC(C)(C)NS(=O)(=O)c1cccc(NC(=O)c2ncc(NC(C)(C)CO)nc2N2CCC3(CC2)CC3)c1` [Example 100, N-(3-(N-(tert-Butyl)sulfamoyl)phenyl)-5-((1-hydroxy-2-methylpropan-2-yl)amino)-3-(6-azaspiro[2.5]octan-6-yl)pyrazine-2-carboxamide] it is 82 nM; for `CC1CCN(c2nc(NC(C)(C)CO)cnc2C(=O)Nc2cccc(S(=O)(=O)NC(C)(C)C)c2)CC1` [Example 100-1, N-(3-(N-(tert-butyl)sulfamoyl)phenyl)-5-((1-hydroxy-2-methylpropan-2-yl)amino)-3-(4-methylpiperidin-1-yl)pyrazine-2-carboxamide] it is 177 nM. The figure for `CC(C)(C)NS(=O)(=O)c1cccc(NC(=O)c2ncc(NC(C)(C)CO)nc2N2CCC(F)(F)CC2)c1` [Example 100-2, N-(3-(N-(tert-butyl)sulfamoyl)phenyl)-3-(4,4-difluoropiperidin-1-yl)-5-((1-hydroxy-2-methylpropan-2-yl)amino)pyrazine-2-carboxamide] is 342 nM; for `CC(C)(C)NS(=O)(=O)c1cccc(NC(=O)c2ncc(NC(C)(C)CO)nc2N2CCC(C(F)(F)F)CC2)c1` [Example 100-3, N-(3-(N-(tert-butyl)sulfamoyl)phenyl)-5-((1-hydroxy-2-methylpropan-2-yl)amino)-3-(4-(trifluoromethyl)piperidin-1-yl)pyrazine-2-carboxamide] it is 455 nM; for `CCC1CCN(c2nc(NC(C)(C)CO)cnc2C(=O)Nc2cccc(S(=O)(=O)NC(C)(C)C)c2)CC1` [Example 100-4, N-(3-(N-(tert-butyl)sulfamoyl)phenyl)-3-(4-ethylpiperidin-1-yl)-5-((1-hydroxy-2-methylpropan-2-yl)amino)pyrazine-2-carboxamide] it is 133 nM. On to `CC1(C)CCN(c2nc(NC(C)(C)CO)cnc2C(=O)Nc2cccc(S(=O)(=O)NC(C)(C)C)c2)CC1` [Example 100-5, N-(3-(N-(tert-butyl)sulfamoyl)phenyl)-3-(4,4-dimethylpiperidin-1-yl)-5-((1-hydroxy-2-methylpropan-2-yl)amino)pyrazine-2-carboxamide], for which the half-maximal inhibitory concentration (IC50) is 190 nM. Take `CC(C)C1CCN(c2nc(NC(C)(C)CO)cnc2C(=O)Nc2cccc(S(=O)(=O)NC(C)(C)C)c2)CC1` [Example 100-6, N-(3-(N-(tert-butyl)sulfamoyl)phenyl)-5-((1-hydroxy-2-methylpropan-2-yl)amino)-3-(4-isopropylpiperidin-1-yl)pyrazine-2-carboxamide]: the IC50 was determined as 319 nM. Take `CC(C)(C)NS(=O)(=O)c1cccc(NC(=O)c2ncc(NC(C)(C)CO)nc2N2CCC(C(C)(C)C)CC2)c1` [Example 100-7, 3-(4-(tert-butyl)piperidin-1-yl)-N-(3-(N-(tert-butyl)sulfamoyl)phenyl)-5-((1-hydroxy-2-methylpropan-2-yl)amino)pyrazine-2-carboxamide]: the concentration for half-maximal inhibition (IC50) was 788 nM. Take `CCC(C)C1CCN(c2nc(NC(C)(C)CO)cnc2C(=O)Nc2cccc(S(=O)(=O)NC(C)(C)C)c2)CC1` (stereo not drawn) [Example 100-8, 3-(4-(sec-butyl)piperidin-1-yl)-N-(3-(N-(tert-butyl)sulfamoyl)phenyl)-5-((1-hydroxy-2-methylpropan-2-yl)amino)pyrazine-2-carboxamide]: the half-inhibitory concentration (IC50) stood at 163 nM. For `CCCC1CCN(c2nc(NC(C)(C)CO)cnc2C(=O)Nc2cccc(S(=O)(=O)NC(C)(C)C)c2)CC1` [Example 100-9, N-(3-(N-(tert-butyl)sulfamoyl)phenyl)-5-((1-hydroxy-2-methylpropan-2-yl)amino)-3-(4-propylpiperidin-1-yl)pyrazine-2-carboxamide], the IC50 came out at 118 nM. Turning to `CC(C)(C)NS(=O)(=O)c1cccc(NC(=O)c2ncc(NC(C)(C)CO)nc2N2CCC(C3CC3)CC2)c1` [Example 100-10, N-(3-(N-(tert-butyl)sulfamoyl)phenyl)-3-(4-cyclopropylpiperidin-1-yl)-5-((1-hydroxy-2-methylpropan-2-yl)amino)pyrazine-2-carboxamide], the IC50 worked out at 221 nM. Regarding `COCC1CCN(c2nc(NC(C)(C)CO)cnc2C(=O)Nc2cccc(S(=O)(=O)NC(C)(C)C)c2)CC1` [Example 100-11, N-(3-(N-(tert-butyl)sulfamoyl)phenyl)-5-((1-hydroxy-2-methylpropan-2-yl)amino)-3-(4-(methoxymethyl)piperidin-1-yl)pyrazine-2-carboxamide], the IC50 stood at 1390 nM. For the compound `CC(C)(C)NS(=O)(=O)c1cccc(NC(=O)c2ncc(NC(C)(C)CO)nc2N2CC3(CCC3)C2)c1` [Example 100-12, N-(3-(N-(tert-butyl)sulfamoyl)phenyl)-5-((1-hydroxy-2-methylpropan-2-yl)amino)-3-(2-azaspiro[3.3]heptan-2-yl)pyrazine-2-carboxamide], the IC50 came to 931 nM. `CC(C)(C)NS(=O)(=O)c1cccc(NC(=O)c2ncc(NC(C)(C)CO)nc2N2CC3(CCCCC3)C2)c1` [Example 100-13, N-(3-(N-(tert-butyl)sulfamoyl)phenyl)-5-((1-hydroxy-2-methylpropan-2-yl)amino)-3-(2-azaspiro[3.5]nonan-2-yl)pyrazine-2-carboxamide]: the half-inhibitory concentration (IC50) was determined as 410 nM. On to `CC(C)(C)NS(=O)(=O)c1cccc(NC(=O)c2ncc(NC(C)(C)CO)nc2N2CCC3(CCOCC3)CC2)c1` [Example 100-14, N-(3-(N-(tert-butyl)sulfamoyl)phenyl)-5-((1-hydroxy-2-methylpropan-2-yl)amino)-3-(3-oxa-9-azaspiro[5.5]undecan-9-yl)pyrazine-2-carboxamide], for which the half-inhibitory concentration (IC50) turned out to be 1380 nM.

In the case of `CC(C)(C)NS(=O)(=O)c1cccc(NC(=O)c2ncc(NC(C)(C)CO)nc2N2CCC3(CCC3)CC2)c1` [Example 100-15, N-(3-(N-(tert-butyl)sulfamoyl)phenyl)-5-((1-hydroxy-2-methylpropan-2-yl)amino)-3-(7-azaspiro[3.5]nonan-7-yl)pyrazine-2-carboxamide], the IC50 was 77 nM. With `CC(C)(C)NS(=O)(=O)c1cccc(NC(=O)c2ncc(NC(C)(C)CO)nc2N2CCC3(CC2)CC(F)(F)C3)c1` [Example 100-16, N-(3-(N-(tert-butyl)sulfamoyl)phenyl)-3-(2,2-difluoro-7-azaspiro[3.5]nonan-7-yl)-5-((1-hydroxy-2-methylpropan-2-yl)amino)pyrazine-2-carboxamide], the half-maximal inhibitory concentration (IC50) worked out at 215 nM.

On to `CC(C)(C)NS(=O)(=O)c1cccc(NC(=O)c2ncc(NC(C)(C)CO)nc2N2CCC3(CCCC3)CC2)c1` [Example 100-17, N-(3-(N-(tert-butyl)sulfamoyl)phenyl)-5-((1-hydroxy-2-methylpropan-2-yl)amino)-3-(8-azaspiro[4.5]decan-8-yl)pyrazine-2-carboxamide], for which the IC50 turned out to be 129 nM. The figure for `Cc1cc(NC(=O)c2ncc(NC(C)(C)CO)nc2N2CCC3(CC2)CC3)cc(S(=O)(=O)NC(C)(C)C)c1` [Example 101, N-(3-(N-(tert-Butyl)sulfamoyl)-5-methylphenyl)-5-((1-hydroxy-2-methylpropan-2-yl)amino)-3-(6-azaspiro[2.5]octan-6-yl)pyrazine-2-carboxamide] is 231 nM. Under `CC(C)(CO)Nc1cnc(C(=O)Nc2cccc(S(=O)(=O)C(C)(C)C(F)(F)F)c2)c(N2CCC3(CC2)CC3)n1` [Example 101-1, 5-((1-hydroxy-2-methylpropan-2-yl)amino)-3-(6-azaspiro[2.5]octan-6-yl)-N-(3-((1,1,1-trifluoro-2-methylpropan-2-yl)sulfonyl)phenyl)pyrazine-2-carboxamide] stands 108 nM; under `CC(C)(CO)Nc1cnc(C(=O)Nc2cccc(S(=O)(=O)C(C)(C)C)c2)c(N2CCC3(CC2)CC3)n1` [Example 101-2, N-(3-(tert-butylsulfonyl)phenyl)-5-((1-hydroxy-2-methylpropan-2-yl)amino)-3-(6-azaspiro[2.5]octan-6-yl)pyrazine-2-carboxamide], 218 nM. On to `CC(C)(CO)Nc1cnc(C(=O)Nc2cccc(S(=O)(=O)C3(C)CCC3)c2)c(N2CCC3(CC2)CC3)n1` [Example 101-3, 5-((1-hydroxy-2-methylpropan-2-yl)amino)-N-(3-((1-methylcyclobutyl)sulfonyl)phenyl)-3-(6-azaspiro[2.5]octan-6-yl)pyrazine-2-carboxamide], for which the IC50 turned out to be 204 nM. For the compound `CC(C)(C)NS(=O)(=O)c1cc(F)cc(NC(=O)c2ncc(NC(C)(C)CO)nc2N2CCC3(CC2)CC3)c1` [Example 101-4, N-(3-(N-(tert-butyl)sulfamoyl)-5-fluorophenyl)-5-((1-hydroxy-2-methylpropan-2-yl)amino)-3-(6-azaspiro[2.5]octan-6-yl)pyrazine-2-carboxamide], the IC50 was 172 nM.
